Results from PMC3361532 (2012).

Target: Abl (Homo sapiens, UniProt P00519)
Assay: in vitro kinase assay with active recombinant Abl
Assay type: biochemical

Abl, sequence (P00519 whole entry): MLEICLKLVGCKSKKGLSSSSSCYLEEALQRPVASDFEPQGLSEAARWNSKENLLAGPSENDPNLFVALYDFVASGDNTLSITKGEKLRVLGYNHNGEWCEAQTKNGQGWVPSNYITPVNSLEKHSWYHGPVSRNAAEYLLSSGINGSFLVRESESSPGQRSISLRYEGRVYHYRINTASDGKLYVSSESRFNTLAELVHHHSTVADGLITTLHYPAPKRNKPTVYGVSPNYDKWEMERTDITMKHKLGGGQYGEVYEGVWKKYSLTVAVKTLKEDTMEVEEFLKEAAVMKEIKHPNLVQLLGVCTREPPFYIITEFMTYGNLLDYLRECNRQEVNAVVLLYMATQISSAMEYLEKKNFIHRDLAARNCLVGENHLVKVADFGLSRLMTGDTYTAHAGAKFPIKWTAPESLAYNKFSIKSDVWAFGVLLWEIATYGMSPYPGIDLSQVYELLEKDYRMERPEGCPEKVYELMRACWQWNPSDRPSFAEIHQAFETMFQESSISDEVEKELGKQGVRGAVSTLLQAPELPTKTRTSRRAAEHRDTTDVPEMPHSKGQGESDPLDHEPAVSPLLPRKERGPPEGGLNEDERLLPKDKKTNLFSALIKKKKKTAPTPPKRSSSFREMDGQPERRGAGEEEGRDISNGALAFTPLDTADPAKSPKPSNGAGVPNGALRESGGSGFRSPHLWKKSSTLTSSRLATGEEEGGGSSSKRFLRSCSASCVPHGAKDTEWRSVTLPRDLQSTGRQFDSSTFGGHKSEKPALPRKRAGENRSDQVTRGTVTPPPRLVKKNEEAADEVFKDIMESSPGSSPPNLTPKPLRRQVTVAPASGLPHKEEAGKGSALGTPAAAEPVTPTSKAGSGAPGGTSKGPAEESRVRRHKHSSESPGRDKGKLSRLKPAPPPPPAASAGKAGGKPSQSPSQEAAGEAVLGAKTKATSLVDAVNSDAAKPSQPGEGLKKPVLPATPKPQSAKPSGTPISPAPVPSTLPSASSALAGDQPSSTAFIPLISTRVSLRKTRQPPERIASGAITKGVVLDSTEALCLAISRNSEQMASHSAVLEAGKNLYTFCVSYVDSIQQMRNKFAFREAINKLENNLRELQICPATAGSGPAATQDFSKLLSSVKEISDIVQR

SMILES: O=C1Nc2ccccc2C1=C1Nc2ccccc2C1=NOCC(O)CO (stereo not shown) [E804]
- IC50: 8.7 µM
